Laboratory results as given in patent US8143236B2, “Chemoprotective methods” (BioNumerik Pharmaceuticals, Inc., priority 2006, dated 2012).

Columns and labels:
[1] = Japan Phase III Clinical Trial, NSCLC patients receiving paclitaxel and cisplatin; assay type: in vivo, human
Description: (§1) The Japan Phase III Clinical Trial was conducted as a double-blind study because peripheral neuropathy is diagnosed based on subjective symptoms evaluated through clinical interviews, lab tests, and the like. Accordingly, evaluations by both physicians and patients are highly important. […] A placebo was used as control since there is no established therapy or drug for preventing peripheral neuropathy. Because the severity of peripheral neuropathy is evaluated based on patients' reports (i.e., subjective symptoms), the Patient Neurotoxicity Questionnaire (PNQ©) (also known as the Peripheral Neuropathy Questionnaire) was used in primary evaluation. The CIPN-20 questionnaire and the National Cancer Institute-Common Toxicity Criteria (NCI-CTC) were used in secondary evaluation. The incidence and severity of adverse reactions, time to their onset, etc. and the like, were compared between patients treated with Tavocept™ and those given a placebo using the aforementioned methods.
(§2) The Primary Endpoint of the Japan Phase III Clinical Trial described in the present invention was specifically designed to test the hypothesis of whether chemotherapy-induced intermittent peripheral neuropathy would occur. The utilization of physical examination, laboratory tests, and highly detailed patient evaluation, especially utilizing the Patient Neurotoxicity Questionnaire (PNQ©), also known as the Peripheral Neuropathy Questionnaire, was responsible for the identification and characterization of this novel intermittent form of chemotherapy-induced peripheral neuropathy. The results illustrated in FIG. 3 indicate that intermittent peripheral neuropathy was specifically identified and measured in the Japan Phase III Clinical Trial. […] Additionally, the results illustrated in FIG. 4 and FIG. 5 also support the finding that the Formula (I) compound, Tavocept™, can mitigate and/or prevent intermittent peripheral neuropathy. FIG. 4 provides data supporting the merit of utilizing the Patient Neurotoxicity Questionnaire (PNQ©), also known as the Peripheral Neuropathy Questionnaire, and the Generalized Estimating Equation (GEE) statistical method to evaluate intermittent and cumulative peripheral neuropathy.

[2] = tested on: chemotherapy-induced peripheral neuropathy; test: as above; assay type: in vivo, human; details: NSCLC; paclitaxel/Tavocept/cisplatin vs paclitaxel/saline placebo/cisplatin
Description: as §1, §2

[3] = tested on: decreases in NCV by cisplatin; test: Cisplatin-induced decrease in nerve conduction velocity (NCV); assay type: in vivo; details: rats, cisplatin 2 mg/kg i.p. twice a week for 6 weeks, 1,000 mg/kg i.v. immediately before cisplatin
Description: Effects of the Formula (I) compound, Tavocept™ (dimesna; disodium 2,2′-dithio-bis-ethane sulfonate), on decreases in nerve conduction velocity (NCV) induced by cisplatin (2 mg/kg) administered by i.p. injection twice a week for 6 consecutive weeks were evaluated in rats.

[4] = tested on: paclitaxel-induced decreases in NCV; test: Paclitaxel-induced decrease in nerve conduction velocity (NCV); assay type: in vivo; details: rats; paclitaxel 6 mg/kg i.v. 5 times every other day; 1,000 mg/kg i.v. immediately after paclitaxel
[5] = tested on: paclitaxel-induced thermoparesthesia; test: Paclitaxel-induced thermoparesthesia model; assay type: in vivo, rats
[6] = after intravenous administration; intracellular glutathione as a cofactor; cited from earlier work
[7] = tested on: sciatic and tibial nerves; test: Histopathological abnormalities of sciatic and tibial nerves caused by paclitaxel; assay type: in vivo; details: paclitaxel 30 mg/kg i.v. every other day (3 doses); 2,000 mg/kg i.v. immediately after paclitaxel
tubulin = details: in vitro; paclitaxel 6 μM; cited from earlier work
[8] = Randomized double-blind placebo-controlled clinical study with paclitaxel: hypersensitivity Adverse Events by infusion time and concentration (FIG. 1); assay type: in vivo, human; details: for proportion of patients with at least one hypersensitivity Adverse Event: entire treated population: paclitaxel plus either placebo or drug (1:1)
Description: FIG. 1 illustrates a comparison of the number of hypersensitivity Adverse Events between groups of patients in whom 2,2′-dithio-bis-ethane sulfonate or a placebo was infused over (1) 30 minutes, (2) 30 and 45 minutes, or (3) 45 minutes. The chemotherapeutic agent administered was paclitaxel. In this Figure, n=#, equals the number of patients.
New methods of administration of agents such as 2,2′-dithio-bis-ethane sulfonate, pharmaceutically-acceptable salts, and/or an analog thereof, have now been discovered in connection with a human clinical study comprising a randomized, double-blind, placebo-controlled study with a 1:1 randomization. Initial blinded study results support the ability of compounds such as 2,2′-dithio-bis-ethane sulfonate to markedly enhance overall safety, decrease overall Adverse Events, decrease hypersensitivity-based Adverse Events, and increase the time of Adverse Event onset, while maintaining at least the same therapeutic indices (e.g. dose level administered in a prescribed specific time schedule, including duration of administration and frequency), and reduction, prevention, mitigation, and/or delay of toxicities associated with the administration of chemotherapeutic agents.
This reduction in the proportion of patients experiencing hypersensitivity reactions overall represents a medically significant difference in such adverse reactions. It represents a reduction in the risk of an observed potentially serious and life-threatening Adverse Event by approximately 29% in the entire study population (i.e., both placebo and 2,2′-dithio-bis-ethane sulfonate populations).
FIG. 1 illustrates a comparison of the number of hypersensitivity Adverse Events between groups of patients in whom 2,2′-dithio-bis-ethane sulfonate or a placebo was infused over (1) 30 minutes, (2) 30 minutes and 45 minutes, or (3) 45 minutes. In addition, the total number of hypersensitivity Adverse Events, the mean time to the first hypersensitivity Adverse Event, and a variety of the types of hypersensitivity Adverse Events were also shown. […] This reduction in the proportion of patients experiencing hypersensitivity Adverse Events overall represents a reduction in the risk of an observed potentially serious and life-threatening Adverse Event by approximately 29% in the entire study population (i.e., both placebo and disodium 2,2′-dithio-bis-ethane sulfonate populations).

[9] = in vivo; cited from earlier work

SMILES: O=S(=O)([O-])CCSSCCS(=O)(=O)[O-].[Na+].[Na+] [Tavocept™, disodium 2,2′-dithio-bis-ethane sulfonate]
- survival of patients with NSCLC ([1]; Tavocept and chemotherapy): medically important increase in survival
- survival time of patients with adenocarcinoma ([1]; Tavocept and chemotherapy): medically important increase in survival time
- chemotherapy-induced anemia, nausea/vomiting, fatigue, and kidney damage ([1]; clinical trial population): medically important reductions
- hematological function (hemoglobin, hematocrit, erythrocyte levels) ([1]; patients with non-small cell lung carcinoma and adenocarcinoma): maintenance or stimulation of hematological function
- reduction in severe (Grade D or E) intermittent or cumulative peripheral neuropathy (FIG. 5) [2]: ~50%
- inhibition rate of decreases in NCV by cisplatin ([3]; 5 weeks after starting cisplatin): 53.6%
- inhibition rate of decreases in NCV by cisplatin ([3]; 6 weeks after starting cisplatin): 64.7%
- inhibition of paclitaxel-induced decreases in NCV [4]: 92.2%
- inhibition rates of thermoparesthesia caused by paclitaxel ([5]; paclitaxel 12 mg/kg i.p. once a week for 5 weeks, 2,000 mg/kg i.v. immediately after paclitaxel): 19.2-34.1%
- maximum inhibition rate of paclitaxel-induced thermoparesthesia ([5]; rats, paclitaxel 6 mg/kg i.v. 5 times every other day, 1,000 mg/kg): 41.7%
- inhibition of paclitaxel-induced thermoparesthesia ([5]; rats, paclitaxel 6 mg/kg i.v. 5 times every other day, 1,000 mg/kg i.v. immediately after paclitaxel): 27.5-59.2%
- maximum inhibition rate of paclitaxel-induced thermoparesthesia ([5]; rats, paclitaxel 6 mg/kg i.v. 5 times every other day, 2,000 mg/kg): 41.5%
- uptake and metabolism [6]: rapidly taken up in the kidney and metabolized into mesna
- increases in the incidence of histopathological abnormalities of the sciatic and tibial nerves [7]: inhibited
- concentration at which tubulin polymerization induced by paclitaxel is inhibited (tubulin): 6 mM
- proportion of patients with at least one hypersensitivity Adverse Event ([8]; 100 mg/mL over 45 minutes): approximately 30%
- proportion of patients with at least one hypersensitivity Adverse Event ([8]; 200 mg/mL over 30 minutes): approximately 42%
- reduction in the overall proportion of patients experiencing hypersensitivity reactions ([8]; 45 min 100 mg/mL vs 30 min 200 mg/mL, absolute difference): approximately 12%
- reduction in hypersensitivity Adverse Events in the drug treatment population ([8]; 45 min 100 mg/mL vs 30 min 200 mg/mL, assumes no placebo effect): ≤ 57%
- reduction in the risk of hypersensitivity Adverse Event in the entire study population ([8]; 45 min 100 mg/mL vs 30 min 200 mg/mL, placebo and drug populations together): approximately 29%

SMILES: N.N.[Cl][Pt][Cl] [cisplatin]
- cumulative dose above which cisplatin-induced neuropathy usually occurs [9]: exceeds 300 mg/m^2
